Key:
[1] = Metabolic stability in pooled human liver microsomes; assay type: in vitro ADME; conditions: for CLint (microsomal): 1 μM substrate, 0.5 mg/mL HLM protein, 37°C; for ER (extraction ratio) / Hepatic CL: well-stirred model, Q 1400 mL/min, fu assumed 1
[2] = Metabolite profiling in HLM incubations by MRM-IDA-EPI; assay type: in vitro ADME, human; conditions: HLM incubation, MRM-IDA-EPI method

Row | CLint (microsomal) [1] | ER (extraction ratio) [1] | Hepatic CL [1] | number of metabolites formed and detected [2] | SMILES
1 | 16.2 μl/min/mg microsomal protein | 0.36 | 505.5 mL/min | Eight | O=C(N1CCC(F)(F)CC1)N1CC(=O)N2CCc3ccccc3C2C1 (stereo not drawn) [PZ10, 2-(4,4-difluoropiperidinyl)carbonyl-1,2,3,6,7,11b-hexa-hydro-4H-pyrazino(2,1-α)isoquinoline-4-one]
2 | 22.0 μl/min/mg microsomal protein | 0.43 | 607.9 mL/min | – | O=C(N1CCCCC1)N1CC(=O)N2CCc3ccccc3C2C1 (stereo not drawn) [PZ07, 2-piperidinylcarbonyl-1,2,3,6,7,11b-hexa-hydro-4H-pyrazino(2,1-α)isoquinoline-4-one]
3 | 22.8 μl/min/mg microsomal protein | 0.44 | 620.2 mL/min | Nine | O=C(C1CCC(F)(F)CC1)N1CC(=O)N2CCc3ccccc3C2C1 (stereo not drawn) [PZ02, 2-(4,4-difluorocyclohexyl)carbonyl-1,2,3,6,7,11b-hexahydro-4H-pyrazino(2,1-α)isoquinoline-4-one]
